Results from US20160305924A1 (LAGUNA PHARMACEUTICALS , INC., priority 2013, published 2016).
One block for each compound: values may come before it.

Key:
Format in all cases: in vivo, human
[1] = Example 1: plasma concentrations of vanoxerine and metabolites after a 300 mg dose (LC-MS/MS); details: for High concentration group average (plasma concentration): 10 patients high concentration group; for Low concentration group average (plasma concentration): 15 patients low concentration group; for Concentrations (plasma): mean of 25 patients
Description: Each patient gave samples before administration of their dose, and then again at nine further time points, 30 minutes after administration, 1, 2, 3, 4, 6, 8, 12, and 24 hours post administration.
Evaluation of samples: A total of 270 human plasma samples were received (in duplicate). The samples were shipped frozen over dry ice. The samples were stored at −70° C. (nominal) until analysis.
Frozen samples were thawed at room temperature. Samples, calibrators, QC samples, sample blanks (blank plasma) and reagent blanks (water) were processed at room temperature. To 200 μL aliquots of each sample, calibrator, and QC sample are added 20 μL of 500 ng/mL of internal standard solution. A sample blank (blank plasma) and reagent blank (water) were also prepared, but without addition of internal standard solution (20 μL of diluent was added instead). To each sample, 200 μL of 1% ammonium hydroxide solution were added and vortex mixed. 3.0 mL of methyl tert-butyl ether were added and then vortex mix for 30 seconds. The sample is then centrifuged for 5 minutes at 4000 rpm and then transferred for about 30 minutes at −70° C. (nominal). The upper (organic) layer was transferred into an evaporation tubes and then evaporated under N2 stream at −50° C. for about 20 min. Samples were then reconstituted in 1000 μL reconstitution solution (80:20:0.1 water: acetonitrile: formic acid). Samples were mixed, allow to stand for about 3 minutes and mixed again. 900 μL of the sample solution was transferred to a 1.5 mL microcentrifuge tube and centrifuged for 5 minutes at 14000 rpm at room temperature. 800 μL of the sample solution was transferred to a glass autosampler vial, and then transferred to the autosampler for analysis. Samples were separated using reversed-phase liquid chromatography with a C18 column.
Chromatographic conditions were as follows: • HPLC instrument: Waters Alliance e2795 HT with temperature controlled autosampler • Column: Waters XBridge C18 3.5μ 100×2.1 mm P.N. 186003022, Lot No. 0143302711 with an appropriate guard column • Column temperature: 45° C. • Autosampler temp. 5° C. • Flow: 0.3 mL/min • Mobile phase A: 10 mM ammonium formate buffer:MeOH:ACN 80:10:10 • Mobile phase B: 10 mM ammonium formate buffer:MeOH:ACN 5:50:45 • Purge solvent: Water:ACN:formic acid 50:50:0.1 • Wash solvent: Water:ACN:formic acid 50:50:0.1 • Injection volume: 20 μL • Run Time: 15 minutes
Detection was based on electro-spray interface in positive mode (ESI+) LC-MS/MS technique, using Micromass Quattro Premier XE MS/MS detector with MassLynx and QuanLynx software version 4.1. […] The MRM transition for all hydroxyl metabolites was m/z 467→203.

[2] = Example 4: daily doses for 7 days, hemodynamics and steady state; details: 50, 100, 150 mg daily, all patients
[3] = Example 5: adverse events
From the text: (§1) The vanoxerine or identical appearing placebo was randomly assigned and administered in a double-blinded fashion.

[4] = Example 2: daily doses for 11 consecutive days, PK and hemodynamics
[5] = Example 3: daily doses for 14 days after a standardized meal, serum levels and adverse events
Description: A standardized meal was served 15 minutes prior to each dosing.

[6] = tested on: recent onset symptomatic AF/AFL; experiment: Example 5: double-blinded placebo-controlled study, conversion to sinus rhythm
From the text: as §1

[7] = 0.5 h post administration, 1.00 = below LLOQ

High concentration group average (plasma concentration) ([1]; 0.5 h, 1.00 = below LLOQ): 1.00 ng/mL
High concentration group average (plasma concentration) ([1]; 1 h, 1.00 = below LLOQ): 1.00 ng/mL
High concentration group average (plasma concentration) ([1]; 6 h, 1.00 = below LLOQ): 1.00 ng/mL
High concentration group average (plasma concentration) ([1]; 8 h, 1.00 = below LLOQ): 1.00 ng/mL
High concentration group average (plasma concentration) ([1]; 12 h, 1.00 = below LLOQ): 1.00 ng/mL
High concentration group average (plasma concentration) ([1]; 24 h): 0.00 ng/mL
Low concentration group average (plasma concentration) ([1]; 0.5 h, 1.00 = below LLOQ): 1.00 ng/mL
Low concentration group average (plasma concentration) ([1]; 2 h, 1.00 = below LLOQ): 1.00 ng/mL
Low concentration group average (plasma concentration) ([1]; 3 h, 1.00 = below LLOQ): 1.00 ng/mL
Low concentration group average (plasma concentration) ([1]; 4 h, 1.00 = below LLOQ): 1.00 ng/mL
Low concentration group average (plasma concentration) ([1]; 6 h, 1.00 = below LLOQ): 1.00 ng/mL
Low concentration group average (plasma concentration) ([1]; 8 h, 1.00 = below LLOQ): 1.00 ng/mL
Low concentration group average (plasma concentration) ([1]; 12 h, 1.00 = below LLOQ): 1.00 ng/mL
Low concentration group average (plasma concentration) ([1]; 24 h, 1.00 = below LLOQ): 1.00 ng/mL
Concentrations (plasma) [1, 7]: 1.00 ng/mL
Concentrations (plasma) ([1]; 1 h, 1.00 = below LLOQ): 1.02 ng/mL
Concentrations (plasma) ([1]; 2 h, 1.00 = below LLOQ): 1.02 ng/mL
Concentrations (plasma) ([1]; 3 h, 1.00 = below LLOQ): 1.01 ng/mL
Concentrations (plasma) ([1]; 4 h, 1.00 = below LLOQ): 1.01 ng/mL
Concentrations (plasma) ([1]; 6 h, 1.00 = below LLOQ): 1.00 ng/mL
Concentrations (plasma) ([1]; 8 h, 1.00 = below LLOQ): 1.00 ng/mL
Concentrations (plasma) ([1]; 12 h, 1.00 = below LLOQ): 1.00 ng/mL
Concentrations (plasma) ([1]; 24 h, 1.00 = below LLOQ): 1.00 ng/mL
Compound: 16-hydroxyl vanoxerine [M02]

High concentration group average (plasma concentration) ([1]; 2 h, 1.00 = below LLOQ): 28.00 ng/mL
Low concentration group average (plasma concentration) ([1]; 8 h, 1.00 = below LLOQ): 5.30 ng/mL
Concentrations (plasma) [1, 7]: 1.93 ng/mL
Concentrations (plasma) ([1]; 1 h, 1.00 = below LLOQ): 7.51 ng/mL
Concentrations (plasma) ([1]; 2 h, 1.00 = below LLOQ): 19.65 ng/mL
Concentrations (plasma) ([1]; 3 h, 1.00 = below LLOQ): 18.68 ng/mL
Concentrations (plasma) ([1]; 4 h, 1.00 = below LLOQ): 16.42 ng/mL
Concentrations (plasma) ([1]; 6 h, 1.00 = below LLOQ): 11.48 ng/mL
Concentrations (plasma) ([1]; 8 h, 1.00 = below LLOQ): 8.98 ng/mL
Concentrations (plasma) ([1]; 12 h, 1.00 = below LLOQ): 6.30 ng/mL
Concentrations (plasma) ([1]; 24 h, 1.00 = below LLOQ): 3.66 ng/mL
Compound: 17-hydroxyl vanoxerine [M01]

steady state levels achieved [2]: within one week
T1/2 range ([4]; 50 mg daily for 11 days): (4.71-110.57) hr
T1/2 range ([4]; 75 mg daily for 11 days): (10.26-116.67) hr
steady state reached ([4]; 50, 75 and 100 mg daily): ≤ 8 days
Tmax ([4]; human, plasma, printed in the Dose column under 50 mg, read-out: TMax range): 0.5 to 2 h
Compound: Fc1ccc(C(OCCN2CCN(CCCc3ccccc3)CC2)c2ccc(F)cc2)cc1 [Vanoxerine, 1-[2-[bis(4-fluorophenyl)methoxy]ethyl]-4-(3-phenylpropyl)piperazine]
Adverse events: serious adverse events ([3]; 200 mg (22)): 1 SAE
Adverse events: subjects reporting ([3]; 200 mg (22)): 4 (18%) subjects (%)
Adverse events: subjects reporting ([3]; 300 mg (25)): 7 (28%) subjects (%)
Adverse events: serious adverse events ([3]; 400 mg (25)): 1 SAE
Adverse events: subjects reporting ([3]; 400 mg (25)): 10 (40%) subjects (%)
tolerability ([3]; 200, 300, 400 mg): well tolerated at all doses
steady-state serum levels versus dose ([5]; 25, 75, 125 mg daily): disproportionately and statistically greater levels at higher doses
adverse events ([5]; 25, 75, 125 mg daily for 14 days, healthy patients): No significant adverse events
Efficacy: Percent conversion ([6]; 200 mg (22), 0-4 hr): 18%
Efficacy: Percent conversion ([6]; 200 mg (22), 0-8 hr): 45%
Efficacy: Percent conversion ([6]; 200 mg (22), 0-24 hr): 59%
Efficacy: Percent conversion ([6]; 300 mg (25), 0-4 hr): 40%
Efficacy: Percent conversion ([6]; 300 mg (25), 0-8 hr): 52%
Efficacy: Percent conversion ([6]; 300 mg (25), 0-24 hr): 64%
Efficacy: Percent conversion ([6]; 400 mg (25), 0-4 hr): 52%
Efficacy: Percent conversion ([6]; 400 mg (25), 0-8 hr): 76%
Efficacy: Percent conversion ([6]; 400 mg (25), 0-24 hr): 84%
time to conversion to normal sinus rhythm, majority of patients ([6]; at a Cmax plasma concentration of more than 40 ng/ml): under 12 hours
